From patent US20230295152A1 (SENDA BIOSCIENCES, INC., priority 2019, published 2023)
≈ marks a conversion by molar mass, not a printed value. Where two headings read alike, the source gives them in different places.

Experiments:
[1] = Solubility Determination Assay in PBS pH 1.6 and pH 7.4; format: physicochemical; settings: PBS buffer, aqueous buffer, kinetic from dmso stock
Protocol: The stock solutions of test compounds and control compound progesterone were prepared in DMSO at the concentrations of 10 mM. 15 μL of stock solution (10 mM) of each sample was placed in order into their proper 96-well rack. 485 μL of PBS pH 1.6 and pH 7.4 were added into each vial of the cap-less Solubility Sample plate. The assay was performed in singlet. One stir stick was added to each vial and then the vial was sealed using a molded PTFE/Silicone plug. […] After completion of the 2 hours, plugs were removed and the stir sticks were removed using a big magnet. The samples from the Solubility Sample plate were transferred into the filter plate. Using the Vacuum Manifold, all the samples were filtered. An aliquot of 5 μL was taken from the filtrate followed by addition of 495 μL of a mixture of H2O and acetonitrile containing internal standard (1:1). A certain proportion of ultrapure water was used to dilute the diluent according to the peak shape. The dilution factor was changed according to the solubility values and the LC-MS signal response.
From the 10 mM DMSO STD plate, 6 μL was transferred into the remaining empty plate, and then 194 μL of DMSO were added to that plate to have a STD concentration of 300 μM. From the 300 μM DMSO STD plate, 5 μL were transferred into the remaining empty plate, and then 495 μL of a mixture of H2O and acetonitrile containing internal standard (1:1) were added to that plate to have a final STD concentration of 3 μM. A certain proportion of ultrapure water was used to dilute the diluent according to the peak shape. The concentrations of the standard samples were changed according to the LC-MS signal response.
The plate was placed into the well plate autosampler. The samples were evaluated by LC-MS/MS analysis.
All calculations were carried out using Microsoft Excel.
The filtrate was analyzed and quantified against a standard of known concentration using LC coupled with mass spectral peak identification and quantitation. Solubility values of the test compound and control compound were calculated as follows: […]
Any value of the compounds that was not within the specified limits was rejected and the experiment was repeated.
“+++” indicates a solubility value equal to or greater than 1 μM, “++” indicates a solubility value between 0.1 and 1 μM, and “+” indicates a solubility value less than 0.1 μM.

[2] = Hepatocyte Stability Assay, human; format: in vitro ADME; settings: cryopreserved hepatocytes in suspension; human hepatocytes; read-out: Human hepatocyte clearance
Protocol: • Preparation of working solutions: 10 mM stock solutions of test compound and positive control were prepared in DMSO. In separate conical tubes, the 10 mM solution of test compound and the positive control were diluted to 100 μM by combining 198 μL of 50% acetonitrile/50% water and 2 μL of 10 mM stock.
Preparation of Hepatocytes: Incubation medium (William's E Medium supplemented with GlutaMAX) and hepatocyte thawing medium were placed in a 37° C. water bath and allowed warming for at least 15 minutes prior to use. A vial of cryopreserved hepatocytes was transferred from storage, ensuring that vials remained at cryogenic temperatures until thawing process ensued. Cells were thawed by placing the vial in a 37° C. water bath and gently shaking the vials for 2 minutes. After thawing was completed, vial was sprayed with 70% ethanol and transferred to a biosafety cabinet. Wide-bore pipette tip were used to transfer hepatocytes into 50 mL conical tube containing thawing medium. The 50 mL conical tube were placed into a centrifuge and spun at 100 g for 10 minutes. Upon completion of spin, thawing medium was aspirated and resuspended hepatocytes in enough incubation medium to yield ˜1.5×10^6 cells/mL. Using an AO/PI Staining, cells were counted and the viable cell density was determined. Cells with poor viability (<75% viability) were determined to be not acceptable for use. Cells were diluted with incubation medium to a working cell density of 0.5×10^6 viable cells/mL.
Procedure for Stability Determination: 198 μL of hepatocytes were pipetted into each wells of a 96-well non-coated plate. The plate was placed in the incubator to allow the hepatocytes to warm for 10 minutes. 2 μL of the 100 μM test compound or positive control solutions were pipetted into respective wells of the 96-well non-coated plate to start the reaction. The plate was returned to the incubator for the designed time points. Well contents was transferred in 25 μL aliquots at time points of 0, 15, 30, 60, 90 and 120 minutes. The aliquots were then mixed with 6 volumes (150 μL) of acetonitrile containing internal standard, IS (100 nM alprazolam, 200 nM caffeine and 100 nM tolbutamide) to terminate the reaction. The mixture was vortex for 5 minutes. Samples were centrifuged for 45 minutes at 3,220 g. An aliquot of 100 μL of the supernatant was diluted by 100 μL ultra-pure water, and the mixture was used for LC/MS/MS analysis. All incubations were performed in duplicate.
Data Analysis: All calculations were carried out using Microsoft Excel. Peak areas were determined from extracted ion chromatograms. In vitro half-life (t1/2) of parent compound was determined by regression analysis of the percent parent disappearance vs. time curve.
The in vitro half-life (in vitro t1/2) was determined from the slope value:
Conversion of the in vitro t1/2 (in min) into the in vitro intrinsic clearance (in vitro CLint, in μL/min/1×10^6 cells) was done using the following equation (mean of duplicate determinations):
V=incubation volume(0.2 mL);
N=number of hepatocytes per well(0.1×10^6 cells).
“+++” indicates a CLint value less than 20 mL/min/Kg, “++” indicates a CLint between 20 and 50 mL/min/Kg, and “+” indicates an CLint above 50 mL/min/Kg.

[3] = PBS pH 1.6, 25° C., read-out: Aq. Solubility at pH = 1.6
[4] = PBS pH 7.4, 25° C., read-out: Aq. Solubility at pH = 7.4

| Structure (SMILES) | solubility at 2 h [1, 3] | solubility at 2 h [1, 4] | CLint scaled at 1 μM [2] |
| --- | --- | --- | --- |
| C[C@H](n1cnc2c(-c3cnn(C)c3)nc(-c3ccc(Cl)cc3)cc2c1=O)C(C)(C)O [Compound 30] |  | 0.1 to 1 µM (≈ 0.0424 to 0.424 µg/mL) | < 20 mL/min/kg |
| O=c1c2cc(-c3ccc(C(F)(F)F)cn3)nc(-c3cccnc3)c2ncn1C[C@H](O)C(F)(F)F [Compound 104, (S)-8-(pyridin-3-yl)-3-(3,3,3-trifluoro-2-hydroxypropyl)-6-(5-(trifluoromethyl)pyridin-2-yl)pyrido[3,4-d]pyrimidin-4(3H)-one] | ≥ 1 µM | ≥ 1 µM | < 20 mL/min/kg |
| C[C@@H](CO)n1cnc2c(-c3cnn(C)c3)nc(-c3ccc(C4CC4)nc3)cc2c1=O [Compound 83] | ≥ 1 µM | ≥ 1 µM | < 20 mL/min/kg |
| Cn1cc(-c2nc(-c3cnc(C(F)(F)F)nc3)cc3c(=O)n(CC(C)(C)O)cnc23)cn1 [Compound 99] | ≥ 1 µM | 0.1 to 1 µM (≈ 0.0445 to 0.445 µg/mL) | < 20 mL/min/kg |
| C[C@@H](CO)n1cnc2c(-c3cnn(C)c3)nc(-c3ccc(C(F)(F)F)nc3)cc2c1=O [Compound 68] | ≥ 1 µM | ≥ 1 µM | < 20 mL/min/kg |
| Cc1ncc(-c2cc3c(=O)n([C@@H](C)CO)cnc3c(-c3cccnc3)n2)s1 [Compound 89] | ≥ 1 µM | ≥ 1 µM | < 20 mL/min/kg |
| O=c1c2cc(-c3ccc(C(F)(F)F)nc3)nc(-c3cccnc3)c2ncn1[C@@H]1COC[C@H]1O [Compound 79] | ≥ 1 µM | ≥ 1 µM | < 20 mL/min/kg |
| O=c1c2cc(-c3ccc(Cl)cc3)nc(-c3cccnc3)c2ncn1[C@H]1COC[C@@H]1O [Compound 125, 6-(4-chlorophenyl)-3-((3S,4R)-4-hydroxytetrahydrofuran-3-yl)-8-(pyridin-3-yl)pyrido[3,4-d]pyrimidin-4(3H)-one] | ≥ 1 µM | ≥ 1 µM | < 20 mL/min/kg |
| C[C@@H](CO)n1cnc2c(-c3cccnc3)nc(-c3ccc(C4CC4)nc3)cc2c1=O [Compound 74] | ≥ 1 µM | ≥ 1 µM | < 20 mL/min/kg |
| CC(C)(O)Cn1cnc2c(-c3cccnc3)nc(-c3ccc(Cl)cc3)cc2c1=O [Compound 18] | ≥ 1 µM | ≥ 1 µM | < 20 mL/min/kg |
| CC(C)(O)Cn1cnc2c(-c3cccnc3)nc(-c3ccc(C4CC4)nc3)cc2c1=O [Compound 81] | ≥ 1 µM | ≥ 1 µM | < 20 mL/min/kg |
| C[C@@H](CO)n1cnc2c(-c3cccnc3)nc(-c3cnc(C(F)(F)F)nc3)cc2c1=O [Compound 86] | ≥ 1 µM | ≥ 1 µM | < 20 mL/min/kg |
| C[C@@H](CO)n1cnc2c(-c3cccnc3)nc(-c3ccc(C(F)(F)F)cc3)cc2c1=O [Compound 23] | ≥ 1 µM | ≥ 1 µM | < 20 mL/min/kg |

Results, then the molecule that gave them:

| solubility at 2 h [1, 3] | solubility at 2 h [1, 4] | CLint scaled at 1 μM [2] | Structure (SMILES) |
| --- | --- | --- | --- |
| ≥ 1 µM | ≥ 1 µM | < 20 mL/min/kg | O=c1c2cc(-c3ccc(C(F)(F)F)nc3)nc(-c3cccnc3)c2ncn1[C@H]1COC[C@H]1O [Compound 126, 3-((3S,4S)-4-hydroxytetrahydrofuran-3-yl)-8-(pyridin-3-yl)-6-(6-(trifluoromethyl)pyridin-3-yl)pyrido[3,4-d]pyrimidin-4(3H)-one] |
| < 0.1 µM | < 0.1 µM | < 20 mL/min/kg | Cn1cc(-c2nc(-c3ccc(C(F)(F)F)nc3)cc3c(=O)n(C[C@@H](O)C(F)(F)F)cnc23)cn1 [Compound 110, (R)-8-(1-methyl-1H-pyrazol-4-yl)-3-(3,3,3-trifluoro-2-hydroxypropyl)-6-(6-(trifluoromethyl)pyridin-3-yl)pyrido[3,4-d]pyrimidin-4(3H)-one] |
| ≥ 1 µM | < 0.1 µM | < 20 mL/min/kg | O=c1c2cc(-c3ccc(OC(F)(F)F)cc3)nc(-c3cccnc3)c2ncn1C[C@H](O)C(F)(F)F [Compound 124, (S)-8-(pyridin-3-yl)-3-(3,3,3-trifluoro-2-hydroxypropyl)-6-(4-(trifluoromethoxy)phenyl)pyrido[3,4-d]pyrimidin-4(3H)-one] |
| ≥ 1 µM | ≥ 1 µM | < 20 mL/min/kg | C[C@H](O)Cn1cnc2c(-c3cccnc3)nc(-c3ccc(C(F)(F)F)cn3)cc2c1=O [Compound 143, (S)-3-(2-hydroxypropyl)-8-(pyridin-3-yl)-6-(5-(trifluoromethyl)pyridin-2-yl)pyrido[3,4-d]pyrimidin-4(3H)-one] |
| ≥ 1 µM | ≥ 1 µM | < 20 mL/min/kg | O=c1c2cc(-c3ccc(C(F)(F)F)cn3)nc(-c3cccnc3)c2ncn1[C@H]1COC[C@@H]1O [Compound 139, 3-((3S,4R)-4-hydroxytetrahydrofuran-3-yl)-8-(pyridin-3-yl)-6-(5-(trifluoromethyl)pyridin-2-yl)pyrido[3,4-d]pyrimidin-4(3H)-one] |
| 0.1 to 1 µM (≈ 0.0458 to 0.458 µg/mL) | 0.1 to 1 µM (≈ 0.0458 to 0.458 µg/mL) | < 20 mL/min/kg | Cn1cc(-c2nc(-c3ccc(C(F)(F)F)nc3)cc3c(=O)n([C@@H]4COC[C@H]4O)cnc23)cn1 [Compound 115, 3-((3R,4S)-4-hydroxytetrahydrofuran-3-y1)-8-(1-methyl-1H-pyrazol-4-y1)-6-(6-(trifluoromethyl)pyridin-3-yl)pyrido[3,4-d]pyrimidin-4(3H)-one] |
| ≥ 1 µM | ≥ 1 µM | < 20 mL/min/kg | CNC(=O)[C@H](C)n1cnc2c(-c3cccnc3)nc(-c3ccc(C(F)(F)F)nc3)cc2c1=O [Compound 156, (S)—N-methyl-2-(4-oxo-8-(pyridin-3-yl)-6-(6-(trifluoromethyl)pyridin-3-yl)pyrido[3,4-d]pyrimidin-3(4H)-yl)propanamide] |
| ≥ 1 µM | ≥ 1 µM | < 20 mL/min/kg | CC(C)(O)Cn1cnc2c(-c3cccnc3)nc(-c3ccc(C(F)(F)F)cn3)cc2c1=O [Compound 105] |
| 0.1 to 1 µM (≈ 0.043 to 0.43 µg/mL) | 0.1 to 1 µM (≈ 0.043 to 0.43 µg/mL) | < 20 mL/min/kg | C[C@H](O)Cn1cnc2c(-c3cnn(C)c3)nc(-c3ccc(C(F)(F)F)nc3)cc2c1=O [Compound 109, (S)-3-(2-hydroxypropyl)-8-(1-methyl-1H-pyrazol-4-yl)-6-(6-(trifluoromethyl)pyridin-3-yl)pyrido[3,4-d]pyrimidin-4(3H)-one] |
| 0.1 to 1 µM (≈ 0.0424 to 0.424 µg/mL) | 0.1 to 1 µM (≈ 0.0424 to 0.424 µg/mL) | < 20 mL/min/kg | Cn1cc(-c2nc(-c3ccc(Cl)cc3)cc3c(=O)n([C@H]4COC[C@@H]4O)cnc23)cn1 [Compound 116] |
